These results are taken from patent US20250302832A1, “PYRAZINE DERIVATIVES AND USES THEREOF” (FOGHORN THERAPEUTICS INC., priority 2022, published 2025).

For assay [1], the target named is T1, HiBit-BRG1 fusion protein (Homo sapiens, UniProt P51532).
T1 construct: expressed in transfected cells
Nature of the assay: HiBiT-BRG1 cell-based degradation assay (Nano-Glo HiBiT lytic detection, 24 h). The note with it: HeLa cell line expressing HiBit-BRG1 and LgBit; for Dmax: read-out: BRG1 HiBit Degradation Maximum (%); for DC50: read-out: BRMG1 HiBit Degradation IC50. The procedure:
Procedure: A stable HeLa cell line expressing HiBiT-BRM was generated. On day 0, 5000 cells were seeded in 40 μL of media into each well of 384-well cell culture plates. […] Subsequently plates were incubated for 24 h in a standard tissue culture incubator and equilibrated at room temperature for 15 minutes. Nano-GB HiBiT Lytic Detection System (Promega N3050) reagent was freshly prepared and 20 ul was added to each well. Upon addition of this LgBit-containing reagent, the HiBiT and LgBiT proteins associate to form the luminescent NanoBiT luciferase. The plates were shaken for 10 minutes at room temperature and the bioluminescence read using an EnVision plate reader (PerkinElmer).
For measurement of BRG1 degradation, a stable HeLa cell line expressing HiBit-BRG1 and LgBit was generated. The same protocol as above was then followed.
(§1) The degradation % was calculated using the following formula: % degradation=100%−100%×(Lumsample−LuMLC)/(LuMHC−LuMLC). DMSO treated cells are employed as High Control (HC) and 2 μM of a known BRM/BRG1 degrader standard treated cells are employed as Low Control (LC).

A further assay concerns the target T2, HiBit-BRM fusion protein (Homo sapiens, UniProt P51531).
T2 construct: expressed in transfected cells
Put plainly: HiBiT-BRM cell-based degradation assay (Nano-Glo HiBiT lytic detection, 24 h). Particulars: HeLa cell line expressing HiBiT-BRM; for DC50: read-out: BRM HiBit Degradation IC50. The procedure: Procedure: A stable HeLa cell line expressing HiBiT-BRM was generated. On day 0, 5000 cells were seeded in 40 μL of media into each well of 384-well cell culture plates. On day 1, cells were treated with 120 nL DMSO or 120 nL of 3-fold serially DMSO-diluted compounds (10 points in duplicate with 30 μM as final top dose). Subsequently plates were incubated for 24 h in a standard tissue culture incubator and equilibrated at room temperature for 15 minutes. Nano-GB HiBiT Lytic Detection System (Promega N3050) reagent was freshly prepared and 20 ul was added to each well. Upon addition of this LgBit-containing reagent, the HiBiT and LgBiT proteins associate to form the luminescent NanoBiT luciferase. The plates were shaken for 10 minutes at room temperature and the bioluminescence read using an EnVision plate reader (PerkinElmer).
as §1
In general terms: With HiBiT, luminescence reflects the tagged protein that the partner subunit can reach.

A value given as a limit tells only on which side of the number the result lay.

T2 sequence (P51531 whole entry, the tested form may be a part): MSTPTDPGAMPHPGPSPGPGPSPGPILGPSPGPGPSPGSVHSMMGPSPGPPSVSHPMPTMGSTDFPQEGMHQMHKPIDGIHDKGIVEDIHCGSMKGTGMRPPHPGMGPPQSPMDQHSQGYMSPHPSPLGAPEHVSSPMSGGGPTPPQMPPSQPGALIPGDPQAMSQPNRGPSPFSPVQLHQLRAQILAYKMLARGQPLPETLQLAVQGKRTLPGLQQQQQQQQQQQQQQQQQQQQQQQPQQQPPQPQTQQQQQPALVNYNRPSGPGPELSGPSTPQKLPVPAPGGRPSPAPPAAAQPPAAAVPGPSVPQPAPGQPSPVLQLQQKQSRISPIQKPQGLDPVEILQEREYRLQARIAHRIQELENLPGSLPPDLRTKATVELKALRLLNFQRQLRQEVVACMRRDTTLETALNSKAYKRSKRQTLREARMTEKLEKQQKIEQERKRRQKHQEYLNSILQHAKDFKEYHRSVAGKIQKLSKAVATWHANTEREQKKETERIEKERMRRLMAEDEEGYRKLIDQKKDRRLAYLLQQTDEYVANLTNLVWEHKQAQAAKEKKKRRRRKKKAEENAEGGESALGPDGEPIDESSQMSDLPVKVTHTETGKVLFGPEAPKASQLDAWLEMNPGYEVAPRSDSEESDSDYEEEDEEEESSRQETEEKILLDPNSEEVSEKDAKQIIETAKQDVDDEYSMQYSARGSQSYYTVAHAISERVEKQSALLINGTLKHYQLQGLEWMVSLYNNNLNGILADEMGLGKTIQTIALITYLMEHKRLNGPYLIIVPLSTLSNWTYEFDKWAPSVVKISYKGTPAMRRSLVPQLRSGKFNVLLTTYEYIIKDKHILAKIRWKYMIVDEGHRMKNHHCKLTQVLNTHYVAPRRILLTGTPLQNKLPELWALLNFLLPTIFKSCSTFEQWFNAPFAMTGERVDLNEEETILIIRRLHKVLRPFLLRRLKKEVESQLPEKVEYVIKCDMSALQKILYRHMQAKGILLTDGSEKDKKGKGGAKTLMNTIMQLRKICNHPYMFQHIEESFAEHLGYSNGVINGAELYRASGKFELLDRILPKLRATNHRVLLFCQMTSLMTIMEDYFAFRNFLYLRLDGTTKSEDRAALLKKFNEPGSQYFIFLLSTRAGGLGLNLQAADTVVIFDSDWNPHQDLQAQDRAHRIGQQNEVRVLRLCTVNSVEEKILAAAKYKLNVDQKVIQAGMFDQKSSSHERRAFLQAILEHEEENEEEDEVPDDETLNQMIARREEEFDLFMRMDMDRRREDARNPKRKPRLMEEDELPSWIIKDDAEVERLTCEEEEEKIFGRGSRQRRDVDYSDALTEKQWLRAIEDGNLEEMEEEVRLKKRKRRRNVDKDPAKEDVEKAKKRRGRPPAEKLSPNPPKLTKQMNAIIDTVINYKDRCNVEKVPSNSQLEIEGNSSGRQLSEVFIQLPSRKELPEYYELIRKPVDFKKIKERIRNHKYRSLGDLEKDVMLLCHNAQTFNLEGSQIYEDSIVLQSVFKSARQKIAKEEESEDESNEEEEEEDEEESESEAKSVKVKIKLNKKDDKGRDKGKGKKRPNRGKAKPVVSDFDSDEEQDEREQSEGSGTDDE
T1 sequence (P51532 whole entry, the tested form may be a part): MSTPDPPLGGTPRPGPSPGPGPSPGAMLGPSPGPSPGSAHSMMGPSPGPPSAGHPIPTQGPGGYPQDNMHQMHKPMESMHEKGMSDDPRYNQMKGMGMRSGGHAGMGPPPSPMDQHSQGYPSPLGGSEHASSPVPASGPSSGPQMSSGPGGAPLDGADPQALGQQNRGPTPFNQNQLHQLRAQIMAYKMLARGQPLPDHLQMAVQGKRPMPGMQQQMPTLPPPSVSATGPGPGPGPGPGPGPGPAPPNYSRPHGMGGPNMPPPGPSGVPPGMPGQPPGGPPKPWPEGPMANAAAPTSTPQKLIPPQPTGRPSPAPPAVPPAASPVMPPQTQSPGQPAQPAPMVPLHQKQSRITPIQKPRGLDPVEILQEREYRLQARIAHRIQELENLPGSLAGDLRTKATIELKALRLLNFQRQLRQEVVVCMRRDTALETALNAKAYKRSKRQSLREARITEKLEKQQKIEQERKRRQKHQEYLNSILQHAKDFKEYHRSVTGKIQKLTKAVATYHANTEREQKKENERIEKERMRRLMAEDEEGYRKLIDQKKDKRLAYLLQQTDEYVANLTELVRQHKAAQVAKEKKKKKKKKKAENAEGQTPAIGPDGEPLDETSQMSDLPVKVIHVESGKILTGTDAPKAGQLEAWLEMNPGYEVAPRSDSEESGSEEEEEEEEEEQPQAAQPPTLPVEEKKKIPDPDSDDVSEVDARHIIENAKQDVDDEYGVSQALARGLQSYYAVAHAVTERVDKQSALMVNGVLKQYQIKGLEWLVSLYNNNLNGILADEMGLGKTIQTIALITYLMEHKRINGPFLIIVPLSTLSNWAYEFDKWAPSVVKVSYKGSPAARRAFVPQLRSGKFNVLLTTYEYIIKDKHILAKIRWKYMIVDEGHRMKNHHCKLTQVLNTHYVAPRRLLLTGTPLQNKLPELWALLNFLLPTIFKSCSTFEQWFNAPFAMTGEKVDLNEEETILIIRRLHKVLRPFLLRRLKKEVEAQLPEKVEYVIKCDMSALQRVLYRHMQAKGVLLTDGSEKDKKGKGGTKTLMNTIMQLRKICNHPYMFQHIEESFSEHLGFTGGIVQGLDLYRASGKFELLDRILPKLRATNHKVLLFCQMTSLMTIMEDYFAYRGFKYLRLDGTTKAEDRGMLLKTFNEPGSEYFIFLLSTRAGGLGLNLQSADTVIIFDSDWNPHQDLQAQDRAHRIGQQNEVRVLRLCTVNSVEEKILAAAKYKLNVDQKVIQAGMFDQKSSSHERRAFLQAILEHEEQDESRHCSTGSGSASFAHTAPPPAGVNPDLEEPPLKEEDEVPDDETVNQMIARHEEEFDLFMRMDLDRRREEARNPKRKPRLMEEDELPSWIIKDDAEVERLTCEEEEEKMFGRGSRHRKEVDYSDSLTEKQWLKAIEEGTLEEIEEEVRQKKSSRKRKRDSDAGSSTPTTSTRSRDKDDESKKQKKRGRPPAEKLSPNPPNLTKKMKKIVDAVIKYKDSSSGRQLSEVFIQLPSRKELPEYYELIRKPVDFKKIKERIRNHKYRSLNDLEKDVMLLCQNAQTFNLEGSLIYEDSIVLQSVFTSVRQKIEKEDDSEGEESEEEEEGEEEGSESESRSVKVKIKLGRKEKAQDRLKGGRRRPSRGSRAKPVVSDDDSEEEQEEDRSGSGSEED

With `Cc1ncsc1-c1ccc([C@H](C)NC(=O)[C@@H]2C[C@@H](O)CN2C(=O)[C@H](c2cc(-c3cnc(N4CCN(c5cc6nnc(-c7ccccc7O)cc6n5C)CC4)nc3)no2)C(C)C)cc1` [Compound 29, (2S,4R)-4-hydroxy-1-[(2S)-2-[3-(2-{4-[3-(2-hydroxyphenyl)-5-methylpyrrolo[3,2-c]pyridazin-6-yl]piperazin-1-yl}pyrimidin-5-yl)-1,2-oxazol-5-yl]-3-methylbutanoyl]-N-[(1S)-1-[4-(4-methyl-1,3-thiazol-5-yl)phenyl]ethyl]pyrrolidine-2-carboxamide], in assay [1], the Dmax is < 50%. Further, on HiBit-BRM fusion protein, the “BRM HiBit Degradation Maximum (%)” value is reported as “A (“A” indicates maximum degradation ≥75%)” and the DC50 is > 10 nM.
On to `Cc1ncsc1-c1ccc([C@H](C)NC(=O)[C@@H]2C[C@@H](O)CN2C(=O)[C@@H](c2cc(-c3cnc(N4CC[C@@H](c5cc6nnc(-c7ccccc7O)cc6n5C5CC5)C4)nc3)no2)C(C)C)cc1` [Compound 36, (2S,4R)-1-((R)-2-(3-(2-((R)-3-(5-cyclopropyl-3-(2-hydroxyphenyl)-5H-pyrrolo[3,2-c]pyridazin-6-yl)pyrrolidin-1-yl)pyrimidin-5-yl)isoxazol-5-yl)-3-methylbutanoyl)-4-hydroxy-N—((S)-1-(4-(4-methylthiazol-5-yl)phenyl)ethyl)pyrrolidine-2-carboxamide], for which, in assay [1], the Dmax is > 75% and the DC50 is < 10 nM. At HiBit-BRM fusion protein, the “BRM HiBit Degradation Maximum (%)” value was “A (“A” indicates maximum degradation ≥75%)” and the DC50 was < 10 nM.
Regarding `Cc1ncsc1-c1ccc([C@H](C)NC(=O)[C@@H]2C[C@@H](O)CN2C(=O)[C@@H](c2cc(-c3cnc(N4CC[C@H](c5cc6nnc(-c7ccccc7O)cc6n5C5(C)CC5)C4)nc3)no2)C(C)C)cc1` [Compound 104, (2S,4R)-4-hydroxy-1-((R)-2-(3-(2-((S)-3-(3-(2-hydroxyphenyl)-5-(1-methylcyclopropyl)-5H-pyrrolo[3,2-c]pyridazin-6-yl)pyrrolidin-1-yl)pyrimidin-5-yl)isoxazol-5-yl)-3-methylbutanoyl)-N-((S)-1-(4-(4-methylthiazol-5-yl)phenyl)ethyl)pyrrolidine-2-carboxamide], in assay [1], the Dmax is > 75% and the DC50 was < 10 nM. At HiBit-BRM fusion protein, the “BRM HiBit Degradation Maximum (%)” value is given as “A (“A” indicates maximum degradation ≥75%)” and the DC50 is < 10 nM.
`CC(C)[C@@H](C(=O)N1C[C@H](O)C[C@H]1C(=O)N[C@@H](C)c1ccc(F)cc1)c1cc(-c2cnc(N3CC[C@H](c4cc5nnc(-c6ccccc6O)cc5n4C4CC4)C3)nc2)no1` [Compound 92, (2S,4R)-1-((R)-2-(3-(2-((S)-3-(5-cyclopropyl-3-(2-hydroxyphenyl)-5H-pyrrolo[3,2-c]pyridazin-6-yl)pyrrolidin-1-yl)pyrimidin-5-yl)isoxazol-5-yl)-3-methylbutanoyl)-N-((S)-1-(4-fluorophenyl)ethyl)-4-hydroxypyrrolidine-2-carboxamide]: in assay [1], the Dmax was < 50%. For the same molecule, on HiBit-BRM fusion protein, the “BRM HiBit Degradation Maximum (%)” value is on record as “A (“A” indicates maximum degradation ≥75%)” and the DC50 is < 10 nM.
As for `C#Cc1ccc(CNC(=O)[C@@H]2C[C@@H](O)CN2C(=O)C(c2cc(N3CC4(CC(c5cc6nnc(-c7ccccc7O)cc6n5C5CCC5)C4)C3)no2)C(C)C)c(OCCCOC)c1` (stereo partly drawn) [Compound 52, (2S,4R)-1-(2-(3-(6-(5-cyclobutyl-3-(2-hydroxyphenyl)-5H-pyrrolo[3,2-c]pyridazin-6-yl)-2-azaspiro[3.3]heptan-2-yl)isoxazol-5-yl)-3-methylbutanoyl)-N-(4-ethynyl-2-(3-methoxypropoxy)benzyl)-4-hydroxypyrrolidine-2-carboxamide], the Dmax in assay [1] was < 50%. In addition, at HiBit-BRM fusion protein, the “BRM HiBit Degradation Maximum (%)” value is listed as “A (“A” indicates maximum degradation ≥75%)” and the DC50 is < 10 nM.
Take `Cc1ncsc1-c1ccc([C@H](C)NC(=O)[C@@H]2C[C@@H](O)CN2C(=O)[C@@H](c2cc(-c3cnc(N4CC[C@@H](c5cc6nnc(-c7ccccc7O)cc6n5C5CCC5)C4)nc3)no2)C(C)C)cc1` [Compound 102, (2S,4R)-1-((R)-2-(3-(2-((R)-3-(5-cyclobutyl-3-(2-hydroxyphenyl)-5H-pyrrolo[3,2-c]pyridazin-6-yl)pyrrolidin-1-yl)pyrimidin-5-yl)isoxazol-5-yl)-3-methylbutanoyl)-4-hydroxy-N-((S)-1-(4-(4-methylthiazol-5-yl)phenyl)ethyl)pyrrolidine-2-carboxamide]: the Dmax in assay [1] was < 50%. Moreover, on HiBit-BRM fusion protein, the “BRM HiBit Degradation Maximum (%)” value is “A (“A” indicates maximum degradation ≥75%)” and the DC50 is < 10 nM.
As to `Cc1ncsc1-c1ccc([C@H](C)NC(=O)[C@@H]2C[C@@H](O)CN2C(=O)[C@@H](c2cc(N3CC[C@H](c4cc5nnc(-c6ccccc6O)cc5n4C4(C)CC4)C3)no2)C(C)C)cc1` [Compound 80, (2S,4R)-4-hydroxy-1-((R)-2-(3-((S)-3-(3-(2-hydroxyphenyl)-5-(1-methylcyclopropyl)-5H-pyrrolo[3,2-c]pyridazin-6-yl)pyrrolidin-1-yl)isoxazol-5-yl)-3-methylbutanoyl)-N-((S)-1-(4-(4-methylthiazol-5-yl)phenyl)ethyl)pyrrolidine-2-carboxamide], in assay [1], the Dmax was > 75% and the DC50 is > 10 nM. Besides, on HiBit-BRM fusion protein, the “BRM HiBit Degradation Maximum (%)” value is reported as “A (“A” indicates maximum degradation ≥75%)” and the DC50 is > 10 nM.
Take `Cc1ncsc1-c1ccc([C@H](C)NC(=O)[C@@H]2C[C@@H](O)CN2C(=O)[C@@H](c2cc(-c3cnc(N4CCC(c5cc6nnc(-c7ccccc7O)cc6n5C(C)C)CC4)nc3)no2)C(C)C)cc1` [Compound 45]: in assay [1], the Dmax was > 75% and the DC50 was < 10 nM. In addition, on HiBit-BRM fusion protein, the “BRM HiBit Degradation Maximum (%)” value is “A (“A” indicates maximum degradation ≥75%)” and the DC50 is < 10 nM.
On to `C#CCNC(=O)[C@@H]1C[C@@H](O)CN1C(=O)C(c1cc(N2CC3(CC(c4cc5nnc(-c6ccccc6O)cc5n4C4CCC4)C3)C2)no1)C(C)C` (stereo partly drawn) [Compound 53, (2S,4R)-1-(2-(3-(6-(5-cyclobutyl-3-(2-hydroxyphenyl)-5H-pyrrolo[3,2-c]pyridazin-6-yl)-2-azaspiro[3.3]heptan-2-yl)isoxazol-5-yl)-3-methylbutanoyl)-4-hydroxy-N-(prop-2-yn-1-yl)pyrrolidine-2-carboxamide], for which the Dmax in assay [1] is < 50%. Also, at HiBit-BRM fusion protein, the “BRM HiBit Degradation Maximum (%)” value was “A (“A” indicates maximum degradation ≥75%)” and the DC50 was > 10 nM.
As for `Cc1ncsc1-c1ccc([C@H](C)NC(=O)[C@@H]2C[C@@H](O)CN2C(=O)[C@@H](c2cc(N3CCC[C@@H](c4cc5nnc(-c6ccccc6O)cc5n4C4CC4)C3)no2)C(C)C)cc1` [Compound 100, (2S,4R)-1-((R)-2-(3-((R)-3-(5-cyclopropyl-3-(2-hydroxyphenyl)-5H-pyrrolo[3,2-c]pyridazin-6-yl)piperidin-1-yl)isoxazol-5-yl)-3-methylbutanoyl)-4-hydroxy-N-((S)-1-(4-(4-methylthiazol-5-yl)phenyl)ethyl)pyrrolidine-2-carboxamide], the Dmax in assay [1] is < 50%. Also, at HiBit-BRM fusion protein, the “BRM HiBit Degradation Maximum (%)” value is “A (“A” indicates maximum degradation ≥75%)” and the DC50 is > 10 nM.
As to `Cc1ncsc1-c1ccc([C@H](C)NC(=O)[C@@H]2C[C@@H](O)CN2C(=O)[C@@H](c2cc(OCCCN3CC(c4cc5nnc(-c6ccccc6O)cc5n4C)C3)no2)C(C)C)cc1` [Compound 11, (2S,4R)-4-hydroxy-1-((R)-2-(3-(3-(3-(3-(2-hydroxyphenyl)-5-methyl-5H-pyrrolo[3,2-c]pyridazin-6-yl)azetidin-1-yl)propoxy)isoxazol-5-yl)-3-methylbutanoyl)-N-((S)-1-(4-(4-methylthiazol-5-yl)phenyl)ethyl)pyrrolidine-2-carboxamide], the Dmax in assay [1] was < 50%. At HiBit-BRM fusion protein, the “BRM HiBit Degradation Maximum (%)” value was “A (“A” indicates maximum degradation ≥75%)” and the DC50 is > 10 nM.
With `Cc1ncsc1-c1ccc([C@H](C)NC(=O)[C@@H]2C[C@@H](O)CN2C(=O)[C@@H](c2cc(N3CCC4(CCC(c5cc6nnc(-c7ccccc7O)cc6n5C5CC5)CC4)CC3)no2)C(C)C)cc1` [Compound 85, (2S,4R)-1-((R)-2-(3-(9-(5-cyclopropyl-3-(2-hydroxyphenyl)-5H-pyrrolo[3,2-c]pyridazin-6-yl)-3-azaspiro[5.5]undecan-3-yl)isoxazol-5-yl)-3-methylbutanoyl)-4-hydroxy-N-((S)-1-(4-(4-methylthiazol-5-yl)phenyl)ethyl)pyrrolidine-2-carboxamide], in assay [1], the Dmax was > 75% and the DC50 is > 10 nM. Also, at HiBit-BRM fusion protein, the “BRM HiBit Degradation Maximum (%)” value is recorded as “A (“A” indicates maximum degradation ≥75%)” and the DC50 was < 10 nM.
